# Structures can show the parent of a compound that is named as a salt. Where two headings read alike, the source gives them in different places.
# Key:
# Assay in all cases: AK assay 384-well format, Prestwick library screening
# E. faecium = assay type: cell-based, Enterococcus faecium; details: Enterococcus faecium, 3 h, 50 μM final drug concentration
# [1] = tested on: S. aureus strain USA300-0114; assay type: cell-based, Staphylococcus aureus; details: Staphylococcus aureus, USA300, 3 h, 50 μM final drug concentration
# K. pneumoniae = assay type: cell-based, Klebsiella pneumoniae; details: Klebsiella pneumoniae, 3 h, 50 μM final drug concentration
# [2] = tested on: A. baumannii strain 98-37-09; assay type: cell-based, Acinetobacter baumannii; details: Acinetobacter baumannii, 983709, 3 h, 50 μM final drug concentration
# P. aeruginosa = assay type: cell-based, Pseudomonas aeruginosa; details: Pseudomonas aeruginosa, 3 h, 50 μM final drug concentration
# E. cloacae = assay type: cell-based, Enterobacter cloacae; details: Enterobacter cloacae, 3 h, 50 μM final drug concentration
# E. coli = assay type: cell-based, Escherichia coli; details: Escherichia coli, 3 h, 50 μM final drug concentration
# [3] = planktonic, cutoff for positive-scoring molecules 3-fold increase, read-out: AK-based Prestwick Library Screening Results, E. faecium (fold increase in extracellular AK activity)
# [4] = planktonic, cutoff for positive-scoring molecules 3-fold increase, read-out: AK-based Prestwick Library Screening Results, S. aureus (fold increase in extracellular AK activity)
# [5] = planktonic, cutoff for positive-scoring molecules 3-fold increase, read-out: AK-based Prestwick Library Screening Results, K. pneumoniae (fold increase in extracellular AK activity)
# [6] = planktonic, cutoff for positive-scoring molecules 3-fold increase, read-out: AK-based Prestwick Library Screening Results, A. baumannii (fold increase in extracellular AK activity)
# [7] = planktonic, cutoff for positive-scoring molecules 3-fold increase, read-out: AK-based Prestwick Library Screening Results, P. aeruginosa (fold increase in extracellular AK activity)
# [8] = planktonic, cutoff for positive-scoring molecules 3-fold increase, read-out: AK-based Prestwick Library Screening Results, E. cloacae (fold increase in extracellular AK activity)
# [9] = planktonic, cutoff for positive-scoring molecules 3-fold increase, read-out: AK-based Prestwick Library Screening Results, E. coli (fold increase in extracellular AK activity)
# [10] = planktonic E. faecium, […], read-out: AK-based Prestwick Library Screening Results, E. faecium (increase in extracellular AK activity)
# [11] = planktonic S. aureus, […], read-out: AK-based Prestwick Library Screening Results, S. aureus (increase in extracellular AK activity)
# [12] = planktonic K. pneumoniae, […], read-out: AK-based Prestwick Library Screening Results, K. pneumoniae (increase in extracellular AK activity)
# [13] = planktonic A. baumannii, […], read-out: AK-based Prestwick Library Screening Results, A. baumannii (increase in extracellular AK activity)
# [14] = planktonic P. aeruginosa, […], read-out: AK-based Prestwick Library Screening Results, P. aeruginosa (increase in extracellular AK activity)
# [15] = planktonic E. cloacae, […], read-out: AK-based Prestwick Library Screening Results, E. cloacae (increase in extracellular AK activity)
# [16] = planktonic E. coli, […], read-out: AK-based Prestwick Library Screening Results, E. coli (increase in extracellular AK activity)
# [17] = planktonic E. faecium, 384-well, cutoff for positive-scoring molecules 3-fold increase, read-out: AK-based Prestwick Library Screening Results: E. faecium (increase in extracellular AK activity)
# [18] = planktonic S. aureus, 384-well, cutoff for positive-scoring molecules 3-fold increase, read-out: AK-based Prestwick Library Screening Results: S. aureus (increase in extracellular AK activity)
# [19] = planktonic K. pneumoniae, 384-well, cutoff for positive-scoring molecules 3-fold increase, read-out: AK-based Prestwick Library Screening Results: K. pneumoniae (increase in extracellular AK activity)
# [20] = planktonic A. baumannii, 384-well, cutoff for positive-scoring molecules 3-fold increase, read-out: AK-based Prestwick Library Screening Results: A. baumannii (increase in extracellular AK activity)
# [21] = planktonic P. aeruginosa, 384-well, cutoff for positive-scoring molecules 3-fold increase, read-out: AK-based Prestwick Library Screening Results: P. aeruginosa (increase in extracellular AK activity)
# [22] = planktonic E. cloacae, 384-well, cutoff for positive-scoring molecules 3-fold increase, read-out: AK-based Prestwick Library Screening Results: E. cloacae (increase in extracellular AK activity)
# [23] = planktonic E. coli, 384-well, cutoff for positive-scoring molecules 3-fold increase, read-out: AK-based Prestwick Library Screening Results: E. coli (increase in extracellular AK activity)
smiles,measurement,setting,value
CC/C(=C(/CC)c1ccc(O)cc1)c1ccc(O)cc1 [Diethylstilbestrol],fold induction at 50 µM,E. faecium; [3],1.1
same,fold induction at 50 µM,[1]; [4],0.6
same,fold induction at 50 µM,K. pneumoniae; [5],0.7
same,fold induction at 50 µM,[2]; [6],1.8
same,fold induction at 50 µM,P. aeruginosa; [7],0.8
same,fold induction at 50 µM,E. cloacae; [8],1.4
same,fold induction at 50 µM,E. coli; [9],0.9
CC(=O)OCC(=O)[C@@]1(OC(C)=O)[C@@H](C)C[C@H]2[C@@H]3C[C@H](F)C4=CC(=O)C=C[C@]4(C)[C@@]3(F)[C@@H](O)C[C@@]21C [Diflorasone Diacetate],fold induction at 50 µM,"E. faecium; planktonic, cutoff for positive 3-fold increase, read-out: AK-based Prestwick Library Screening Results, E. faecium (fold increase in extracellular AK activity)",1.1
same,fold induction at 50 µM,"[1]; planktonic, cutoff for positive 3-fold increase, read-out: AK-based Prestwick Library Screening Results, S. aureus (fold increase in extracellular AK activity)",1.1
same,fold induction at 50 µM,"K. pneumoniae; planktonic, cutoff for positive 3-fold increase, read-out: AK-based Prestwick Library Screening Results, K. pneumoniae (fold increase in extracellular AK activity)",1
same,fold induction at 50 µM,"[2]; planktonic, cutoff for positive 3-fold increase, read-out: AK-based Prestwick Library Screening Results, A. baumannii (fold increase in extracellular AK activity)",0.9
same,fold induction at 50 µM,"P. aeruginosa; planktonic, cutoff for positive 3-fold increase, read-out: AK-based Prestwick Library Screening Results, P. aeruginosa (fold increase in extracellular AK activity)",1
same,fold induction at 50 µM,"E. cloacae; planktonic, cutoff for positive 3-fold increase, read-out: AK-based Prestwick Library Screening Results, E. cloacae (fold increase in extracellular AK activity)",1.4
same,fold induction at 50 µM,"E. coli; planktonic, cutoff for positive 3-fold increase, read-out: AK-based Prestwick Library Screening Results, E. coli (fold increase in extracellular AK activity)",1.1
O=C(O)c1cc(-c2ccc(F)cc2F)ccc1O [Diflunisal],fold induction at 50 µM,"E. faecium; 384-well format, […], read-out: AK-based Prestwick Library Screening Results, E. faecium (increase in extracellular AK activity)",0.9
same,fold induction at 50 µM,"[1]; 384-well format, […], read-out: AK-based Prestwick Library Screening Results, S. aureus (increase in extracellular AK activity)",0.6
same,fold induction at 50 µM,"K. pneumoniae; 384-well format, […], read-out: AK-based Prestwick Library Screening Results, K. pneumoniae (increase in extracellular AK activity)",0.6
same,fold induction at 50 µM,"[2]; 384-well format, […], read-out: AK-based Prestwick Library Screening Results, A. baumannii (increase in extracellular AK activity)",0.7
same,fold induction at 50 µM,"P. aeruginosa; 384-well format, […], read-out: AK-based Prestwick Library Screening Results, P. aeruginosa (increase in extracellular AK activity)",0.6
same,fold induction at 50 µM,"E. cloacae; 384-well format, […], read-out: AK-based Prestwick Library Screening Results, E. cloacae (increase in extracellular AK activity)",1.2
same,fold induction at 50 µM,"E. coli; 384-well format, […], read-out: AK-based Prestwick Library Screening Results, E. coli (increase in extracellular AK activity)",0.7
C[C@]12CC[C@H](O)C[C@H]1CC[C@@H]1[C@@H]2CC[C@]2(C)[C@@H](C3=CC(=O)OC3)CC[C@]12O [Digitoxigenin],fold induction at 50 µM,E. faecium; [10],0.9
same,fold induction at 50 µM,[1]; [11],0.6
same,fold induction at 50 µM,K. pneumoniae; [12],0.7
same,fold induction at 50 µM,[2]; [13],0.8
same,fold induction at 50 µM,P. aeruginosa; [14],0.8
same,fold induction at 50 µM,E. cloacae; [15],1.2
same,fold induction at 50 µM,E. coli; [16],0.9
C[C@]12CC[C@H](O)C[C@H]1CC[C@@H]1[C@@H]2C[C@@H](O)[C@]2(C)[C@@H](C3=CC(=O)OC3)CC[C@]12O [Digoxigenin],fold induction at 50 µM,E. faecium; [3],0.8
same,fold induction at 50 µM,[1]; [4],0.6
same,fold induction at 50 µM,K. pneumoniae; [5],0.6
same,fold induction at 50 µM,[2]; [6],0.6
same,fold induction at 50 µM,P. aeruginosa; [7],0.5
same,fold induction at 50 µM,E. cloacae; [8],0.7
same,fold induction at 50 µM,E. coli; [9],0.7
C[C@H]1O[C@@H](O[C@H]2[C@@H](O)C[C@H](O[C@H]3[C@@H](O)C[C@H](O[C@H]4CC[C@@]5(C)[C@H](CC[C@@H]6[C@@H]5C[C@@H](O)[C@]5(C)[C@@H](C7=CC(=O)OC7)CC[C@]65O)C4)O[C@@H]3C)O[C@@H]2C)C[C@H](O)[C@@H]1O [Digoxin],fold induction at 50 µM,E. faecium; [10],0.9
same,fold induction at 50 µM,[1]; [11],0.8
same,fold induction at 50 µM,K. pneumoniae; [12],0.7
same,fold induction at 50 µM,[2]; [13],0.9
same,fold induction at 50 µM,P. aeruginosa; [14],0.8
same,fold induction at 50 µM,E. cloacae; [15],1.2
same,fold induction at 50 µM,E. coli; [16],0.8
CC(C)[C@@]1(NC(=O)[C@@H]2C[C@@H]3c4cccc5[nH]cc(c45)C[C@H]3N(C)C2)O[C@@]2(O)[C@@H]3CCCN3C(=O)[C@H](Cc3ccccc3)N2C1=O [Dihydroergocristine mesylate],fold induction at 50 µM,E. faecium; [17],0.9
same,fold induction at 50 µM,[1]; [18],0.5
same,fold induction at 50 µM,K. pneumoniae; [19],0.6
same,fold induction at 50 µM,[2]; [20],0.7
same,fold induction at 50 µM,P. aeruginosa; [21],0.6
same,fold induction at 50 µM,E. cloacae; [22],0.6
same,fold induction at 50 µM,E. coli; [23],0.7
CN[C@@H]1[C@H](O[C@H]2[C@H](O[C@H]3[C@H](O)[C@@H](O)[C@H](NC(=N)N)[C@@H](O)[C@@H]3NC(=N)N)O[C@@H](C)[C@]2(O)CO)O[C@@H](CO)[C@H](O)[C@H]1O [Dihydrostreptomycin sulfate],fold induction at 50 µM,E. faecium; [17],1
same,fold induction at 50 µM,[1]; [18],1.2
same,fold induction at 50 µM,K. pneumoniae; [19],0.7
same,fold induction at 50 µM,[2]; [20],1.2
same,fold induction at 50 µM,P. aeruginosa; [21],0.9
same,fold induction at 50 µM,E. cloacae; [22],1.3
same,fold induction at 50 µM,E. coli; [23],1.2
COc1cc(C(=O)OCCCN2CCCN(CCCOC(=O)c3cc(OC)c(OC)c(OC)c3)CC2)cc(OC)c1OC [Dilazep dihydrochloride],fold induction at 50 µM,E. faecium; [17],1.1
same,fold induction at 50 µM,[1]; [18],1.2
same,fold induction at 50 µM,K. pneumoniae; [19],1.4
same,fold induction at 50 µM,[2]; [20],1.4
same,fold induction at 50 µM,P. aeruginosa; [21],1.3
same,fold induction at 50 µM,E. cloacae; [22],1.1
same,fold induction at 50 µM,E. coli; [23],1.5
CN(C(=O)C(Cl)Cl)c1ccc(OC(=O)c2ccco2)cc1 [Diloxanide furoate],fold induction at 50 µM,E. faecium; [3],0.8
same,fold induction at 50 µM,[1]; [4],0.7
same,fold induction at 50 µM,K. pneumoniae; [5],0.7
same,fold induction at 50 µM,[2]; [6],0.9
same,fold induction at 50 µM,P. aeruginosa; [7],1
same,fold induction at 50 µM,E. cloacae; [8],1.2
same,fold induction at 50 µM,E. coli; [9],1
COc1ccc([C@@H]2Sc3ccccc3N(CCN(C)C)C(=O)[C@@H]2OC(C)=O)cc1 [Diltiazem hydrochloride],fold induction at 50 µM,E. faecium; [17],0.9
same,fold induction at 50 µM,[1]; [18],0.8
same,fold induction at 50 µM,K. pneumoniae; [19],1
same,fold induction at 50 µM,[2]; [20],1
same,fold induction at 50 µM,P. aeruginosa; [21],0.9
same,fold induction at 50 µM,E. cloacae; [22],1.5
same,fold induction at 50 µM,E. coli; [23],1
